# Reference: patent US20170107179A1 (Tetraphase Pharmaceuticals, Inc., priority 2010, published 2017)
# Like-named read-outs stand apart in the source and are kept apart here.
# Assays:
# [1] = test system: Gram-negative and Gram-positive organisms (clinical isolates); test: Broth microdilution MIC against clinical isolates (CLSI M7-A8), Table 9; assay type: cell-based
# S. maltophila = test: Broth microdilution MIC by tetracycline resistance phenotype (Table 10); assay type: cell-based; design: unit not given beside the values
# [2] = test system: Viridans group streptococci; test: as above; assay type: cell-based; design: unit not given beside the values
# [3] = test system: Legionella pneumophila, 70 isolates, serogroups 1-6; test: microbe, parasite or virus in culture; assay type: cell-based
# E. coli DH10B EC971 LacZ = test: MIC, E. coli DH10B recombinantly expressing control gene
# [4] = test system: evaluated pathogens by tetracycline phenotype; test: Broth microdilution MIC by tetracycline phenotype (Table 14)
# [5] = test system: E. coli DH10B EC1153 Tet(X); test: MIC, E. coli DH10B recombinantly expressing tetracycline-resistance gene; conditions: arabinose-induced, ampicillin in medium
# E. coli DH10B EC969 TetM = test: as above; conditions: arabinose-induced, ampicillin in medium
# E. coli DH10B EC970 TetK = test: as above; conditions: arabinose-induced, ampicillin in medium
# [6] = test system: E. coli DH10B EC1082 TetA; test: as above; conditions: arabinose-induced, ampicillin in medium
# [7] = test system: E. coli DH10B EC1083 TetB; test: as above; conditions: arabinose-induced, ampicillin in medium
# [8] = test system: S. pneumoniae strain SP514; test: Immunocompetent CD-1 murine lung infection model; assay type: in vivo; conditions: immunocompetent CD-1 mice, SP514, orally dosed 30 mg/kg at 5, 24 and 36 hours post-infection (FIG. 2)
# Method: Compound 102 was tested in an immunocompetent CD-1 murine model of lung infection challenged with S. pneumoniae strain SP514.
# [9] = Streptococcus pneumoniae, S. pneumoniae, TET NS, N=46
# [10] = Klebsiella aerogenes, Enterobacter aerogenes, n=30
# [11] = Klebsiella pneumoniae, Klebsiella pneumonia, n=27
# [12] = Staphylococcus aureus, Staphylococcus aureus (MRSA PVL+), n=30, read-out: MIC50
# [13] = Staphylococcus aureus, Staphylococcus aureus (MRSA PVL+), n=30, read-out: MIC90
# [14] = Staphylococcus aureus, Staphylococcus aureus MRSA (includes MRSA PVL+ group), n=105, read-out: MIC50
# [15] = Staphylococcus aureus, Staphylococcus aureus MRSA (includes MRSA PVL+ group), n=105, read-out: MIC90
# [16] = Stenotrophomonas maltophilia, n=29
# [17] = Streptococcus intermedius, n=30
# [18] = Enterococcus faecium, E. faecium, TET NS, N=40
# [19] = Enterococcus faecium, E. faecium, TET S, N=60
# [20] = Streptococcus agalactiae, S. agalactiae, TET NS, N=39
# [21] = Streptococcus agalactiae, S. agalactiae, TET S, N=11
# [22] = Streptococcus pneumoniae, S. pneumoniae, TET S, N=54
# [23] = Streptococcus pyogenes, S. pyogenes, TET S, N=44
compound,measurement,setting,value
"CN(C)[C@@H]1C(O)=C(C(N)=O)C(=O)[C@@]2(O)C(O)=C3C(=O)c4c(O)cccc4[C@@](C)(O)[C@H]3C[C@@H]12 [Tetracycline, tetracycline]",MIC50,[1],0.25 µg/mL
same,MIC90,[1],> 8 µg/mL
same,MIC50,[1]; Acinetobacter lwoffii,0.5 µg/mL
same,MIC90,[1]; Acinetobacter lwoffii,4 µg/mL
same,MIC50,[1]; Enterobacter cloacae,4 µg/mL
same,MIC90,[1]; Enterobacter cloacae,> 8 µg/mL
same,MIC50,[1]; Escherichia coli,> 8 µg/mL
same,MIC90,[1]; Escherichia coli,> 8 µg/mL
same,MIC50,[1]; Klebsiella aerogenes,1 µg/mL
same,MIC90,[1]; Klebsiella aerogenes,2 µg/mL
same,MIC50,[1]; Klebsiella pneumoniae,8 µg/mL
same,MIC90,[1]; Klebsiella pneumoniae,> 8 µg/mL
same,MIC50,[1]; Morganella morganii,2 µg/mL
same,MIC90,[1]; Morganella morganii,> 8 µg/mL
same,MIC50,[1]; Proteus vulgaris,8 µg/mL
same,MIC90,[1]; Proteus vulgaris,> 8 µg/mL
same,MIC50,[1]; Serratia marcescens,> 8 µg/mL
same,MIC90,[1]; Serratia marcescens,> 8 µg/mL
same,MIC50,[1]; Staphylococcus aureus,0.25 µg/mL
same,MIC50,[1]; Stenotrophomonas maltophilia,8 µg/mL
same,MIC90,[1]; Stenotrophomonas maltophilia,> 8 µg/mL
same,MIC50,[1]; Streptococcus anginosus,0.12 µg/mL
same,MIC90,[1]; Streptococcus anginosus,> 4 µg/mL
same,MIC50,[1]; Streptococcus intermedius,0.25 µg/mL
same,MIC90,[1]; Streptococcus intermedius,> 4 µg/mL
same,MIC50,[1]; Streptococcus mitis,0.5 µg/mL
same,MIC90,[1]; Streptococcus mitis,> 4 µg/mL
same,MIC50,"S. maltophila; TET NS, n=19",>8
same,MIC90,"S. maltophila; TET NS, n=19",>8
same,MIC50,"S. maltophila; TET S, n=10",4
same,MIC90,"S. maltophila; TET S, n=10",4
same,MIC50,"[2]; TET NS, n=32",>4
same,MIC90,"[2]; TET NS, n=32",>4
same,MIC50,"[2]; TET S, n=65",0.25
same,MIC90,"[2]; TET S, n=65",0.5
same,MIC50,[3],4 µg/mL
same,MIC90,[3],8 µg/mL
same,MIC EC971 LacZ,E. coli DH10B EC971 LacZ,2
same,MIC90,"[4]; F. faecalis, TET S, N=30",500 µg/mL
same,MIC50,[4]; [9],16000 µg/mL
same,MIC EC1153 Tet(X),[5],>32
same,MIC EC969 TetM,E. coli DH10B EC969 TetM,64
same,MIC EC970 TetK,E. coli DH10B EC970 TetK,64
same,MIC EC1082 TetA,[6],>128
same,MIC EC1083 TetB,[7],>128
"CN(C)c1cc(NC(=O)CNC(C)(C)C)c(O)c2c1C[C@H]1C[C@H]3[C@H](N(C)C)C(O)=C(C(N)=O)C(=O)[C@@]3(O)C(O)=C1C2=O [Tigecycline, tigecycline]",MIC50,"[1]; Acinetobacter lwoffii, n=29",0.12 µg/mL
same,MIC90,"[1]; Acinetobacter lwoffii, n=29",0.5 µg/mL
same,MIC50,"[1]; Enterobacter cloacae, n=29",1 µg/mL
same,MIC90,"[1]; Enterobacter cloacae, n=29",4 µg/mL
same,MIC50,"[1]; Escherichia coli, n=40",0.5 µg/mL
same,MIC90,"[1]; Escherichia coli, n=40",2 µg/mL
same,MIC50,"[1]; Kiebsielia oxytoca, n=30",0.5 µg/mL
same,MIC90,"[1]; Kiebsielia oxytoca, n=30",2 µg/mL
same,MIC50,[1]; [10],0.5 µg/mL
same,MIC90,[1]; [10],0.5 µg/mL
same,MIC50,[1]; [11],2 µg/mL
same,MIC90,[1]; [11],4 µg/mL
same,MIC50,"[1]; Morganella morganii, n=30",2 µg/mL
same,MIC90,"[1]; Morganella morganii, n=30",4 µg/mL
same,MIC50,"[1]; Proteus vulgaris, n=29",2 µg/mL
same,MIC90,"[1]; Proteus vulgaris, n=29",4 µg/mL
same,MIC50,"[1]; Salmonella species, n=30",0.25 µg/mL
same,MIC90,"[1]; Salmonella species, n=30",0.5 µg/mL
same,MIC50,"[1]; Serratia marcescens, n=30",1 µg/mL
same,MIC90,"[1]; Serratia marcescens, n=30",2 µg/mL
same,MIC50,[1]; [12],0.12 µg/mL
same,MIC90,[1]; [13],0.12 µg/mL
same,MIC50,[1]; [14],0.13 µg/mL
same,MIC90,[1]; [15],0.25 µg/mL
same,MIC50,[1]; [16],0.5 µg/mL
same,MIC90,[1]; [16],2 µg/mL
same,MIC50,"[1]; Streptococcus anginosus, n=20",0.03 µg/mL
same,MIC90,"[1]; Streptococcus anginosus, n=20",0.06 µg/mL
same,MIC50,[1]; [17],0.03 µg/mL
same,MIC90,[1]; [17],0.12 µg/mL
same,MIC50,"[1]; Streptococcus mitis, n=29",0.03 µg/mL
same,MIC90,"[1]; Streptococcus mitis, n=29",0.12 µg/mL
same,MIC50,"[1]; Streptococcus sanguis, n=18",0.03 µg/mL
same,MIC90,"[1]; Streptococcus sanguis, n=18",0.06 µg/mL
same,MIC50,"[2]; TET NS, n=32",0.03
same,MIC90,"[2]; TET NS, n=32",0.12
same,MIC50,"[2]; TET S, n=65",0.03
same,MIC90,"[2]; TET S, n=65",0.06
same,MIC EC971 LacZ,"E. coli DH10B EC971 LacZ; E. coli DH10B, arabinose-induced, ampicillin in medium",0.0625
same,MIC50,[4]; [18],0.06 µg/mL
same,MIC90,[4]; [18],0.12 µg/mL
same,MIC50,[4]; [19],0.06 µg/mL
same,MIC90,[4]; [19],0.06 µg/mL
same,MIC50,"[4]; F. faecalis, TET NS, N=71",0.12 µg/mL
same,MIC90,"[4]; F. faecalis, TET NS, N=71",0.12 µg/mL
same,MIC50,"[4]; F. faecalis, TET S, N=30",0.06 µg/mL
same,MIC90,"[4]; F. faecalis, TET S, N=30",0.12 µg/mL
same,MIC50,[4]; [20],0.12 µg/mL
same,MIC90,[4]; [20],0.12 µg/mL
same,MIC50,[4]; [21],0.12 µg/mL
same,MIC90,[4]; [21],0.12 µg/mL
same,MIC50,[4]; [9],0.06 µg/mL
same,MIC90,[4]; [9],0.06 µg/mL
same,MIC50,[4]; [22],0.06 µg/mL
same,MIC90,[4]; [22],0.06 µg/mL
same,MIC50,"[4]; Streptococcus pyogenes, S. pyogenes, TET NS, N=6",0.06 µg/mL
same,MIC50,[4]; [23],0.06 µg/mL
same,MIC90,[4]; [23],0.06 µg/mL
same,MIC EC1153 Tet(X),[5],2
same,MIC EC969 TetM,E. coli DH10B EC969 TetM,0.125
same,MIC EC970 TetK,E. coli DH10B EC970 TetK,0.0625
same,MIC EC1082 TetA,[6],1
same,MIC EC1083 TetB,[7],0.0625
"CC(=O)NC[C@H]1CN(c2ccc(N3CCOCC3)c(F)c2)C(=O)O1 [linezolid, Linezolid]",log10 reduction in CFU versus the 48 hour untreated control,[8],3.56±0.63 log10
same,MIC50,[1]; [12],1 µg/mL
same,MIC90,[1]; [13],2 µg/mL
same,MIC50,[1]; [14],2 µg/mL
same,MIC90,[1]; [15],4 µg/mL
same,MIC50,"[1]; Streptococcus anginosus, n=20",0.5 µg/mL
same,MIC90,"[1]; Streptococcus anginosus, n=20",1 µg/mL
same,MIC50,[1]; [17],1 µg/mL
same,MIC90,[1]; [17],1 µg/mL
same,MIC50,"[1]; Streptococcus mitis, n=29",1 µg/mL
same,MIC90,"[1]; Streptococcus mitis, n=29",1 µg/mL
same,MIC50,"[1]; Streptococcus sanguis, n=18, read-out: MIC50",0.5 µg/mL
same,MIC90,"[1]; Streptococcus sanguis, n=18, read-out: MIC90",1 µg/mL
